What was measured:
[1] = Plasma protein binding, rat; assay type: in vitro ADME
Text: (§1) Additionally, the whole blood-to-plasma ratio (KWB/P) in humans is 6.20, which also exceeds the other species tested (Table 7).

[2] = Plasma protein binding, dog; assay type: in vitro ADME
Text: as §1

[3] = Organic solubility of INX-315 by visual inspection; assay type: physicochemical; design: key to Soluble at 4 wt % / Soluble at 2 wt % / Soluble at 1 wt % / Soluble at 0.5 wt % / Soluble at 0.4 wt % / Soluble at 0.25 wt %: ✓, soluble; X, insoluble
CDK2/cyclin E = CDK2/cyclin E (Homo sapiens, UniProt P24941); details: intracellular; read-out: Nanobret IC50 CDK2/cyclin E; cited from earlier work

## NS(=O)(=O)c1ccc(Nc2ncc3cc4n(c3n2)C2(CCCCC2)C(=O)NN4)cc1 [INX-315]
[1]
  fraction unbound: 0.018
[2]
  fraction unbound: 0.04
[3]; 1:9 DMSO:H2O
  Soluble at 0.25 wt %: X
  Soluble at 0.4 wt %: X
  Soluble at 0.5 wt %: X
  Soluble at 1 wt %: X
  Soluble at 2 wt %: X
  Soluble at 4 wt %: X
[3]; 3:1 DCM:MeOH
  Soluble at 0.25 wt %: X
  Soluble at 0.4 wt %: X
  Soluble at 0.5 wt %: X
  Soluble at 1 wt %: X
  Soluble at 2 wt %: X
  Soluble at 4 wt %: X
[3]; 4:1 ACN:H2O
  Soluble at 0.25 wt %: X
  Soluble at 0.4 wt %: X
  Soluble at 0.5 wt %: X
  Soluble at 1 wt %: X
  Soluble at 2 wt %: X
  Soluble at 4 wt %: X
[3]; 4:1 THF:H2O
  Soluble at 0.25 wt %: ✓
  Soluble at 0.4 wt %: ✓
  Soluble at 0.5 wt %: ✓
  Soluble at 1 wt %: ✓
  Soluble at 2 wt %: ✓
  Soluble at 4 wt %: ✓
[3]; 5:1 DCM:H2O
  Soluble at 0.25 wt %: X
  Soluble at 0.4 wt %: X
  Soluble at 0.5 wt %: X
  Soluble at 1 wt %: X
  Soluble at 2 wt %: X
  Soluble at 4 wt %: X
[3]; 8:2 Acetone:H2O
  Soluble at 0.25 wt %: ✓
  Soluble at 0.4 wt %: ✓
  Soluble at 0.5 wt %: X
  Soluble at 1 wt %: X
  Soluble at 2 wt %: X
  Soluble at 4 wt %: X
[3]; 9:1 ACN:H2O
  Organic solubility (soluble up to): up to 0.5 wt %
  Soluble at 0.25 wt %: ✓
  Soluble at 0.4 wt %: ✓
  Soluble at 0.5 wt %: ✓
  Soluble at 1 wt %: X
  Soluble at 2 wt %: X
  Soluble at 4 wt %: X
[3]; 9:1 Acetone:H2O
  Soluble at 0.25 wt %: ✓
  Soluble at 0.4 wt %: ✓
  Soluble at 0.5 wt %: X
  Soluble at 1 wt %: X
  Soluble at 2 wt %: X
  Soluble at 4 wt %: X
[3]; Acetone
  Organic solubility (soluble up to): up to 0.5 wt %
  Soluble at 0.25 wt %: ✓
  Soluble at 0.4 wt %: ✓
  Soluble at 0.5 wt %: ✓
  Soluble at 1 wt %: X
  Soluble at 2 wt %: X
  Soluble at 4 wt %: X
[3]; Methanol
  Soluble at 0.25 wt %: ✓
  Soluble at 0.4 wt %: X
  Soluble at 0.5 wt %: X
  Soluble at 1 wt %: X
  Soluble at 2 wt %: X
  Soluble at 4 wt %: X
CDK2/cyclin E
  IC50: 2 nM

Source: patent publication US20260041640A1 (INCYCLIX BIO, LLC, priority 2023, published 2026)
